Laboratory results published in US12427147B2, “Retinal ganglion cell death inhibitor” (SENJU PHARMACEUTICAL CO., LTD., priority 2018, dated 2025).

Tests used:
[1] = system: rat retinal ganglion cells; assay: Menadione-induced retinal ganglion cell death, antibody/K02288 treatment (Example 1); format: cell-based; conditions: 6 μM menadione, 18 hours, vs Normal IgG treatment group, n=3, FIG. 1C
Protocol: The retina was taken out from each of 7 days-old SD rats (13 rats) (Japan SLC Co., Ltd.) and retinal cells were dispersed by Dissociation Kit-Postnatal Neurons (Miltenyi Biotec). Thereafter, retinal ganglion cells (RGC) were isolated from other retinal cells by use of Retinal Ganglion Cell Isolation Kits (Miltenyi Biotec).
The retinal ganglion cells were suspended in RGC culture medium, seeded in the wells of a 96-well plate at a density of 2×10^4 cells/well and cultured at 37° C. under a 5% CO2 atmosphere for 24 hours. Twenty four hours later, the medium was removed. To a medium for a menadione reaction, 6 μM menadione, Normal rabbit IgG (Santa Cruz Biotechnology, Inc.), an anti-ALK3 antibody (Anti-BMPR1A antibody, Abcam plc.), an anti-ALK4 antibody (anti-Activin A receptor Type IB antibody, Abcam plc.) and an ALK3 inhibitor, i.e., K02288 (Tocris Bioscience) (PLOS ONE 2013 8 (4) e62721) were added in accordance with the constitutions of individual groups (described later) and incubation was performed at 37° C. for 18 hours. […] Three photographs per well were taken by IncuCyte S3 live cell analysis system (Essen Bioscience) and analyzed. Data was calculated as the ratio of the number of survival cells relative to a total number of dead cells and survival cells. […]

[2] = system: rat retinal ganglion cells; assay: Menadione-induced retinal ganglion cell death, low-molecular ALK3 inhibitors (Example 2); format: cell-based; conditions: 6 μM menadione; for dose dependence of cell death inhibitory effect: 100 nM to 10 μM K02288, 100 nM to 1 μM LDN-193189; for cell death inhibitory effect compared to the group treated with menadione alone / protection of cells from retinal ganglion cell death induced by menadione: 18 hours
Protocol: Rat retinal ganglion cells were isolated in the same manner as in Example 1. In the experimental system (FIG. 2A) of K02288 treatment, three rats were used; whereas, in the experimental system (FIG. 2B) of LDN-193189 treatment, two rats were used.
Retinal ganglion cells were suspended in RGC culture medium and seeded in the wells of a 96-well plate at a density of 1×10^4 cells/well and cultured at 37° C. under a 5% CO2 atmosphere for 24 hours. Twenty four hours later, the medium was removed. To a medium for a menadione reaction, 6 μM menadione and ALK3 inhibitors, i.e., K02288 (Tocris Bioscience) or LDN-193189 (MedChemExpress) (PLOS ONE 2013 8 (4) e62721) were added in accordance with the constitutions of individual groups. DMSO was added to a non K02288 treatment group or a non LDN-193189 treatment group, (a group treated with menadione alone). The cells were incubated at 37° C. for 18 hours and thereafter stained by use of LIVE/DEAD Viability/Cytotoxicity Kit (Thermo Fisher Scientific Inc.). Three photographs per well were taken by use of IncuCyte S3 live cell analysis system (Essen Bioscience) and analyzed. Data was calculated as the ratio of the number of survival cells relative to a total number of dead cells and survival cells. The RGC culture medium and medium for a menadione reaction used herein are the same as those used in Example 1.
Constitutions of groups (a group treated with K02288: n=8, a group treated with LDN-193189: n=6)
Control group: menadione was absent
A group treated with menadione alone: menadione and DMSO were added
A group treated with K02288 (3 groups: 100 nM, 1 μM, 10 μM): menadione and K02288 were added
A group treated with LDN-193189 (2 groups: 100 nM, 1 μM): menadione and LDN-193189 were added.

[3] = system: retinal ganglion cells; conditions: mouse retina, Non Patent Literature 1; cited from earlier work
[4] = 1 μM test compound, FIGS. 2A and 2B

Molecule | suppression of retinal ganglion cell death (ratio of survival cells to total cells) [1] | dose dependence of cell death inhibitory effect [2] | cell death inhibitory effect compared to the group treated with menadione alone [2, 4] | protection of cells from retinal ganglion cell death induced by menadione [2] | cell death inhibitory effect compared to the group treated with menadione alone ([2]; 10 μM test compound, FIG. 2A) | effect on retinal ganglion cell death induced by NMDA [3]
COc1cc(-c2cc(-c3cccc(O)c3)cnc2N)cc(OC)c1OC [K02288, 3-[6-amino-5-(3,4,5-trimethoxyphenyl)-3-pyridinyl]-phenol] | cell death was significantly suppressed | cell death inhibitory effect in a dose-dependent manner | significant cell death inhibitory effect | exerted an effect to protect cells | significant cell death inhibitory effect | –
c1ccc2c(-c3cnn4cc(-c5ccc(N6CCNCC6)cc5)cnc34)ccnc2c1 [LDN-193189, 4-[6-(4-piperazin-1-yl-phenyl)-pyrazolo[1,5-α]pyrimidin-3-yl]-quinoline] | – | cell death inhibitory effect in a dose-dependent manner | significant cell death inhibitory effect | exerted an effect to protect cells | – | –
BMP4: a kind of BMP (bone morphogenetic protein) (protein, UniProt P12644 293-408, looked up) Bone morphogenetic protein 4: SPKHHSQRARKKNKNCRRHSLYVDFSDVGWNDWIVAPPGYQAFYCHGDCPFPLADHLNSTNHAIVQTLVNSVNSSIPKACCVPTELSAISMLYLDEYDKVVLKNYQEMVVEGCGCR | – | – | – | – | – | suppressed
Noggin: a BMP inhibitor (naturally occurring protein) (protein, UniProt Q13253 28-232, looked up) Noggin: QHYLHIRPAPSDNLPLVDLIEHPDPIFDPKEKDLNETLLRSLLGGHYDPGFMATSPPEDRPGGGGGAAGGAEDLAELDQLLRQRPSGAMPSEIKGLEFSEGLAQGKKQRLSKKLRRKLQMWLWSQTFCPVLYAWNDLGSRFWPRYVKVGSCFSKRSCSVPEGMVCKPSKSVHLTVLRWRCQRRGGQRCGWIPIQYPIISECKCSC | – | – | – | – | – | accelerated
